Source: ChEMBL document CHEMBL1134864, “Synthesis and biological evaluation of 9-substituted tetracycline derivatives” (2002)
Converted amounts (≈) assume the structure as drawn.

Legend:
Assay type in all cases: functional
Staphylococcus aureus [1] = assay: Minimum inhibition concentration against Methicillin resistant Staphylococcus aureus
Staphylococcus aureus [2] = assay: Minimum inhibition concentration against Staphylococcus aureus
Enterococcus faecalis = assay: Minimum inhibition concentration against Enterococcus faecalis

SMILES	MIC (Staphylococcus aureus [1]) [µg/mL]	MIC (Staphylococcus aureus [2]) [µg/mL]	MIC (Enterococcus faecalis) [µg/mL]
C[C@H]1c2ccc(-c3ccc([N+](=O)[O-])cc3)c(O)c2C(=O)C2=C(O)[C@]3(O)C(O)=C(C(N)=O)C(=O)[C@@H](N(C)C)C3[C@@H](O)C21 (stereo partly specified)	0.39 (≈ 0.69 µM)	3.12 (≈ 5.52 µM)	0.78 (≈ 1.38 µM)
C=Cc1ccc2c(c1O)C(=O)C1=C(O)[C@]3(O)C(O)=C(C(N)=O)C(=O)[C@@H](N(C)C)C3[C@@H](O)C1[C@H]2C (stereo partly specified)	< 0.098	1.56 (≈ 3.32 µM)	< 0.098
C[C@H]1c2ccc(-c3ccc(N)cc3)c(O)c2C(=O)C2=C(O)[C@]3(O)C(O)=C(C(N)=O)C(=O)[C@@H](N(C)C)C3[C@@H](O)C21 (stereo partly specified)	1.56 (≈ 2.91 µM)	3.12 (≈ 5.83 µM)	3.12 (≈ 5.83 µM)
C#Cc1ccc2c(c1O)C(=O)C1=C(O)[C@]3(O)C(O)=C(C(N)=O)C(=O)[C@@H](N(C)C)C3[C@@H](O)C1[C@H]2C (stereo partly specified)	0.39 (≈ 0.833 µM)	1.56 (≈ 3.33 µM)	0.78 (≈ 1.67 µM)
C[C@H]1c2ccc(-c3ccccc3)c(O)c2C(=O)C2=C(O)[C@]3(O)C(O)=C(C(N)=O)C(=O)[C@@H](N(C)C)C3[C@@H](O)C21 (stereo partly specified)	0.78 (≈ 1.5 µM)	3.12 (≈ 5.99 µM)	1.56 (≈ 3 µM)
C[C@H]1c2cccc(O)c2C(=O)C2=C(O)[C@]3(O)C(=O)C(C(N)=O)=C(O)[C@@H](N(C)C)[C@@H]3[C@@H](O)[C@@H]21.O [DOXYCYCLINE]	6.25	> 50	6.25
CN(C)c1ccc(O)c2c1C[C@H]1C[C@H]3[C@H](N(C)C)C(O)=C(C(N)=O)C(=O)[C@@]3(O)C(O)=C1C2=O [MINOCYCLINE]	6.25 (≈ 13.7 µM)	3.12 (≈ 6.82 µM)	< 0.098
